In experiment [1] the test system is male NMRI mice (isolation induced aggressive behaviour). In words: Isolation induced aggressive behaviour test. As to conditions: Mus musculus, sc, read-out: ED50, isolation induced aggressive behaviour test. In kind it is in vivo. The source says: Test 1: Isolation induced aggressive behaviour test
Male mice subjected to prolonged isolation develop aggressive behaviour against each other when paired (Yen, C. Y. et al., Arch. Int. Pharmacodyn. 123, 179, (1959): Valzelli, L., Adv. Pharmacol. 5, 79 (1967)). […] The clinical correlation of this test indicates tranquillizing and anxiolytic activities as well as antiaggressive properties as such (Duncan, R. L. et al., J Med. Chem. 13, 1 (1970)).
This type of aggression is interesting because it is known that this kind of emotional behaviour might be located in limbic structures in the brain (MacLean, P.D., Psychosom. Med. 11, 338 (1949)).
Every week male NMRI mice, weighing 20-22 g, were isolated in Makrolon cages for three weeks with diet and water ad libitum. A piece of cardboard was placed between the cages to prevent visual contact.
To test aggressiveness the mice were paired in a neutral area, a beaker (14 cm high and diameter 14 cm). A pair is considered aggressive if both the animals show clear signs of fighting within 5 minutes. This fighting is characterized by biting and vocalization. […] Animals showing no aggression are discarded. […] The test substance is administered s.c. (0.2-0.4 ml/20 g). The mice are paired 0.5 hour after the injection for trials of 5 minutes duration.
The ED50 -value (mg/kg) reported is the dose inhibiting aggressive behaviour among 50 per cent of the pairs 0.5 hour after drug administration.

Experiment [2] concerns female rats (conditioned avoidance response). In words: Conditioned avoidance response (CAR). It is filed as in vivo. The settings on record: Rattus norvegicus, sc, 1.5 h, read-out: ED50, conditioned avoidance response. As for the experimental part: Test 2: Conditioned avoidance response (CAR)
The effect of the test compounds on CAR was evaluated in a shuttle box, manufactured by Ugo Basile, Italy. The female rats, weighing 150 g, were trained to avoid an electric shock (unconditioned stimulus--US) by escaping from one compartment to the other when the light from a 15W lamp is switched on (conditioned stimulus--CS). When they responded to the CS, a conditioned response (CR) was considered to have been elicited. Rats showing a stable CR of more than 80% after a three weeks' training program were used in the experiments. Groups of six rats were subcutaneously administered with various doses of the test compounds. 11/2 hours after the administration each rat was placed in the experimental box and the effect on CR was evaluated. ED50 -values refer to the dose inhibiting CR in 50% of the animals. The mechanisms regulating conditioned responses are very complex. Both catecholaminergic and hormonal factors are of importance.

In experiment [3] the test system is female NMRI mice (writhing behaviour). In words: Writhing test (acetic acid). In kind it is in vivo. The settings on record: Mus musculus, sc, 20 minutes before acetic acid (0.5%, 15 ml/kg i.p.), dose blocking writhing in 50% of the animals. The method, then: The writhing test is a frequently used test of analgetic properties (Witkin, L. B. et al., J. Pharmacol. Exp. Ther. 133, 400 (1961)). If acetic acid (0.5%, 15 ml/kg) is injected intraperitoneally in mice (NMRI) they will without exception develop a writhing behaviour characterized by stretching their hind legs. The drugs to be tested were administered subcutaneously to 6 female mice at each dose 20 minutes before the injection of the acetic acid. After 10 minutes the behaviour of the mice was studied in 5 minutes. The ED50 -value is the dose blocking the writhing behaviour in 50% of the animals during the 5 minutes study period. [drawing 12]

In experiment [4] the test system is male NMRI mice (isolation induced aggressive behaviour). As to conditions: result in words; clinically used drugs; cited from earlier work.
[5] abbreviates: mice, dose inhibiting aggressive behaviour among 50 per cent of the pairs 0.5 hour after administration.
The mark [6] stands for this setting: s.c., rats, dose inhibiting CR in 50% of the animals, 1 1/2 hours after administration.

Where a name gives a salt, the structure may show the parent alone. Read-outs that look alike come from different tables or passages of the source.

One may read the ED50 as the dose at which the effect has come halfway, by size or by number of responders.

`CN(C)CCC=C1c2ccccc2CCc2ccccc21` [Amitriptyline]: the ED50 in experiment [1] (setting [5]) is 5 mg/kg.

With `CSc1ccc2c(c1)N(CCC1CCCCN1C)c1ccccc1S2` (stereo not drawn) [Thioridazine], the values for the ED50 in experiment [2] (setting [6]) and in experiment [1] (setting [5]) were 41 mg/kg and 5 mg/kg, respectively.

In the case of `CCNC(=O)N1CCN(CCCC(=O)c2ccc(F)cc2)CC1` [1:3, 4-.vertline.4-(p-fluorophenyl)-4-oxobutyl.vertline.-N-ethyl-1-piperazinecarboxamide hydrochloride], the ED50 in experiment [2] (setting [6]) turned out to be 12 mg/kg; in experiment [3] it was 1.9 mg/kg; in experiment [1] (setting [5]) it was 1.7 mg/kg.

On to `CCNC(=O)N1CCN(CCCCc2ccc(F)cc2)CC1` [1:15, 4-.vertline.4-(p-fluorophenyl)butyl.vertline.-N-ethyl-1-piperazinecarboxamide hydrochloride], for which the ED50 stood at 7.9 mg/kg in experiment [2] (setting [6]), 3.7 mg/kg in experiment [3] and 3.5 mg/kg in experiment [1] (setting [5]).

For the compound `CN(C)CCCN1c2ccccc2Sc2ccc(Cl)cc21` [Chlorpromazine], the ED50 is 3.5 mg/kg in experiment [2] and 1.4 mg/kg in experiment [1] (0.5 h).

For `CN1C(=O)CN=C(c2ccccc2)c2cc(Cl)ccc21` [Diazepam], the “activity on isolation induced aggressive behaviour, known drugs” value in experiment [4] is reported as “active on this kind of aggressive behaviour”.

(Values after US4935419A, “Novel 1-piperazinecarboxamide derivatives” (priority 1983, dated 1990).)
